Laboratory results reported in patent US4524135A.
Values after ≈ are worked out from the molar mass of the structure shown. Values joined by “and” are separate entries in the source; they are usually repeats but may differ in a detail not shown here. Identical values can stand only once.

Tests used:
[1] = system: Streptococcus pneumoniae Park I; experiment: Agar-dilution test; assay type: cell-based
[2] = system: Staphylococcus aureus V41; experiment: Agar-dilution test; assay type: cell-based; details: penicillin-resistant strain
[3] = system: Streptococcus pyogenes C203; experiment: Agar-dilution test
[4] = system: Micrococcus luteus ATCC 9341; experiment: Agar-plate disc-diffusion test; assay type: cell-based; details: 1 mg/ml suspension in water, 7-mm disc, 24-48 hours at 25-37° C.
[5] = system: Streptococcus Group D X66; experiment: Agar-dilution test
Toxicity in mice = details: mouse, in vivo, iv, administered intravenously
Text: | ^a Administered intravenously

[6] = system: Staphylococcus epidermidis EPI2; experiment: Agar-dilution test
Streptococcus Group 9960 = details: agar dilution
[7] = system: Bacillus subtilis ATCC 6633; experiment: Agar-plate disc-diffusion test; assay type: cell-based; details: 1 mg/ml suspension in water, 7-mm disc, 24-48 hours at 25-37° C.
[8] = system: Staphylococcus aureus X1.1; experiment: Agar-dilution test
[9] = system: Staphylococcus aureus X400; details: agar dilution; methicillin-resistant strain
[10] = system: Staphylococcus epidermidis EPI1; details: agar dilution
[11] = system: Staphylococcus aureus ATCC 6738P; experiment: Agar-plate disc-diffusion test; assay type: cell-based; details: 1 mg/ml suspension in water, 7-mm disc, 24-48 hours at 25-37° C.
Staphylococcus aureus = experiment: Experimental bacterial infection in mice; assay type: in vivo; details: subcutaneous, two doses
Text: (§1) The results of in vivo tests to evaluate the effectiveness of the derivatives against experimental bacterial infections in mice are given in Table III. […] 81, 233-235 (1961)].

Streptococcus pyogenes = experiment: Experimental bacterial infection in mice; assay type: in vivo; details: two doses
Text: as §1

| Structure (SMILES) | MIC [1] | MIC [2] | MIC [3] | Size of Zone of Inhibition [4] | MIC [5] | LD50 (Toxicity in mice) | MIC [6] | MIC (Streptococcus Group 9960) | Size of Zone of Inhibition [7] | Size of Zone of Inhibition ([7]; grown on minimal nutrient agar) | MIC [8] | MIC [9] | MIC [10] | Size of Zone of Inhibition [11] | ED50 (Staphylococcus aureus) | ED50 (Streptococcus pyogenes; oral) | ED50 (Streptococcus pyogenes; subcutaneous) |
| --- | --- | --- | --- | --- | --- | --- | --- | --- | --- | --- | --- | --- | --- | --- | --- | --- | --- |
| CCCCCCCCCC(=O)N[C@@H](Cc1c[nH]c2ccccc12)C(=O)N[C@@H](CC(N)=O)C(=O)N[C@@H](CC(=O)O)C(=O)N[C@@H]1C(=O)NCC(=O)N[C@@H](CCCN)C(=O)N[C@@H](CC(=O)O)C(=O)N[C@H](C)C(=O)N[C@@H](CC(=O)O)C(=O)NCC(=O)N[C@H](CO)C(=O)N[C@@H]([C@H](C)CC(=O)O)C(=O)N[C@@H](CC(=O)c2ccccc2N)C(=O)O[C@@H]1C [Example 6] | 1 µg/mL and 0.5 µg/mL | 1 µg/mL and 0.5 µg/mL | 0.25 µg/mL and 0.125 µg/mL | 22 mm | 16 µg/mL (≈ 9.87 µM) | > 300 mg/kg | 1 µg/mL and 0.5 µg/mL | 2 µg/mL (≈ 1.23 µM) | 20 mm | 29 mm | 1 µg/mL and 0.5 µg/mL | 2 µg/mL and 1 µg/mL | 2 µg/mL and 1 µg/mL | 24 mm | 0.28 mg/kg × 2 | 66 mg/kg × 2 | 0.03 mg/kg × 2 |
| CCCCCCCCCC(=O)N[C@@H](Cc1ccccc1)C(=O)N[C@@H](Cc1c[nH]c2ccccc12)C(=O)N[C@@H](CC(N)=O)C(=O)N[C@@H](CC(=O)O)C(=O)N[C@@H]1C(=O)NCC(=O)N[C@@H](CCCN)C(=O)N[C@@H](CC(=O)O)C(=O)N[C@H](C)C(=O)N[C@@H](CC(=O)O)C(=O)NCC(=O)N[C@H](CO)C(=O)N[C@@H]([C@H](C)CC(=O)O)C(=O)N[C@@H](CC(=O)c2ccccc2N)C(=O)O[C@@H]1C [Example 7, NTrp-[N-(n-Decanoyl)-L-phenylalanyl]-A-21978C Nucleus] | 0.5 µg/mL (≈ 0.283 µM) | 0.5 µg/mL (≈ 0.283 µM) | 0.25 µg/mL (≈ 0.141 µM) | 24 mm | 8 µg/mL (≈ 4.53 µM) | 600 mg/kg | 0.5 µg/mL (≈ 0.283 µM) | 2 µg/mL (≈ 1.13 µM) | 22 mm | 31 mm | 0.5 µg/mL (≈ 0.283 µM) | 1 µg/mL (≈ 0.566 µM) | 1 µg/mL (≈ 0.566 µM) | 30 mm | 0.7 mg/kg × 2 and 0.98 mg/kg × 2 | > 200 mg/kg × 2 | 0.39 mg/kg × 2 |
| CCCCCCCCCCCCOc1ccc(C(=O)N[C@@H](Cc2c[nH]c3ccccc23)C(=O)N[C@H](CC(N)=O)C(=O)N[C@@H](CC(=O)O)C(=O)N[C@@H]2C(=O)NCC(=O)N[C@@H](CCCN)C(=O)N[C@@H](CC(=O)O)C(=O)N[C@H](C)C(=O)N[C@@H](CC(=O)O)C(=O)NCC(=O)N[C@H](CO)C(=O)N[C@@H]([C@H](C)CC(=O)O)C(=O)N[C@@H](CC(=O)c3ccccc3N)C(=O)O[C@@H]2C)cc1 [Example 8, NTrp -p-(n-dodecyloxy)benzoyl-A-21978C Nucleus] | – | 1 µg/mL (≈ 0.57 µM) | 0.25 µg/mL (≈ 0.142 µM) | 18 mm | 2 µg/mL (≈ 1.14 µM) | 67.5 mg/kg | 2 µg/mL (≈ 1.14 µM) | 1 µg/mL (≈ 0.57 µM) | 13 mm | 20 mm | 1 µg/mL (≈ 0.57 µM) | 2 µg/mL (≈ 1.14 µM) | 4 µg/mL (≈ 2.28 µM) | 20 mm | 3.35 mg/kg × 2 | > 200 mg/kg × 2 | 0.31 mg/kg × 2 |
